The values below come from US10611748B2, “Xanthone derivatives for the treatment of hepatitis B virus disease” (Hoffmann-La Roche Inc., priority 2017, dated 2020).

For experiment [1], the system named is extracellular HBeAg level (surrogate marker for cccDNA) in HepDES19 cells. Description: HepDES19 primary screen assay. It is filed as cell-based, HBV. The conditions noted are these: Hepatitis B virus, 120 h, 5 days compound incubation, HBeAg ELISA. An excerpt: The assay was employed to primarily screen for novel cccDNA inhibitors. HepDES19 is an engineered cell line which contains a 1.1 unit length HBV genome, and pgRNA transcription from the transgene is controlled by Tetracycline (Tet). In the absence of Tet, pgRNA transcription will be induced, but HBV e antigen (HBeAg) could not be produced from this pgRNA due to the fact that the very short leader sequence before the HBeAg start codondisrupted the start codon. Only after cccDNA is formed, the missing leader sequence and start codon mutation would be restored from the 3′-terminal redundancy of pgRNA, and then HBeAg could be synthesized. Therefore, HBeAg could be used as a surrogate marker for cccDNA (Zhou, T. et al., Antiviral Res(2006), 72(2), 116-124; Guo, H. et al., J. Virol (2007), 81(22), 12472-12484).
HepDES19 cells were seeded at 2×10^6 cells per T150 flask and cultured with the culture medium (Dulbecco's Modified Eagle Medium: Nutrient Mixture F-12 (DMEM:F12, Gibco Cat. 11320-82), 10% Fetal Bovine Serum (FBS, Clontech Cat. 631101), 0.1 mM Non-Essential Amino Acids Solution (NEAA, Gibco Cat. 11140-050), 50 μg/mL Penicillin-Streptomycin (PS, Invitrogen Cat. 15140-163), 500 μg/mL Geneticin (G418, Invitrogen Cat. 10131-027) containing 3 μg/mL Tet (Sigma, Cat. 87128) for 5 days. Cells were then seeded at 4×10^6 cells per T150 in the same culture medium as described above in the absence of Tet for 8 days. Cells were then harvested and frozen at density of 2×10^6 cells per mL. For compound testing, the frozen cells were thawed and seeded into 96-well plates at a density of 6×10^4 cells per well. At 24 hrs after seeding, half log serial dilutions of compounds made with Dimethyl sulfoxide (DMSO, Sigma, Cat. D2650) were further diluted with the same culture medium as described above before they were added to the cells to reach desired final compound concentrations and 1% DMSO concentration. Plates were then incubated at 37° C. for another 5 days before measurement of HBeAg level and cell viability. Extracellular HBeAg level were measured with enzyme-linked immunosorbent assay (ELISA) kit (Shanghai Kehua Diagnostic Medical Products Co., Ltd). Cell viability was assessed using Cell Counting Kit-8 (Donjindo, Cat. CK04-20). IC50 values were derived from the dose-response curve using 4 parameter logistic curve fit method.
The compounds of the present invention were tested for their capacity to inhibit extracellular HBeAg level as described herein.
On the technique in general: An ELISA detects its analyte on a solid surface through an enzyme-linked reagent.

The subject of experiment [2] is extracellular HBsAg level in HBV-infected PHH. Kind of experiment: Cryopreserved primary human hepatocytes (PHH) assay, HBsAg. It is filed as cell-based. The conditions noted are these: Hepatitis B virus, Hepatocyte, 216 h, read-out: HBsAg IC50. As to the method: Cryopreserved PHH (BioreclamationIVT, Lot YJM) was thawed at 37° C. and gently transferred into pre-warmed InVitroGRO HT medium (BioreclamationIVT, Cat. S03317). The mixture was centrifuged at 70 relative centrifugal force (RCF) for 3 minutes at RT, and the supernatant was discarded. Pre-warmed InVitroGRO CP medium (BioreclamationIVT, Cat # S03316) was added to the cell pellet to gently re-suspend cells. The cells were seeded at the density of 5.8×10^4 cells per well to collagen I coated 96-well plate (Gibco, Cat. A1142803) with the InVitroGRO CP medium. All plates were incubated at 37° C. with 5% CO2 and 85% humidity.
At 20 hours after plating, the medium was changed to PHH culture medium (Dulbecco's Modified Eagle Medium (DMEM)/F12 (1:1) (Gibco, Cat. 11320-033), 10% fetal bovine serum (Gibco Cat. 10099141), 100 U/mL penicillin, 100 μg/mL streptomycin (Gibco, Cat. 151401-122), 5 ng/mL human epidermal growth factor (Invitrogen Cat. PHG0311L), 20 ng/mL dexamethasone (Sigma, Cat. D4902) and 250 ng/mL human recombinant insulin (Gibco, Cat. 12585-014)). And the cells were incubated at 37° C. with 5% CO2 and 85% humidity for 4 hours. The medium was then changed to pre-warmed PHH culture medium containing 4% polyethylene glycol (PEG) MW8000 (Sigma, Cat. P1458-50ML) and 1% DMSO (Sigma, Cat. D2650). 5.8×10^6 genomic equivalents of HBV were added into the medium.
At 24 hours post-infection, the cells were gently washed with PBS and refreshed with PHH culture medium supplemented with 1% DMSO, and 0.25 mg/mL Matrix gel (Corning, Cat. 356237) at 200 μL per well. All plates were immediately placed in at 37° C. CO2 incubator.
24 hours later, serial dilutions of compounds made with DMSO were further diluted with the same culture medium (PHH culture medium supplemented with 1% DMSO and 0.25 mg/mL Matrix gel as described above) before they were added to the cells to reach desired final compound concentrations and 1% DMSO concentration. The medium containing the compounds were refreshed every three days.
At 9 days post-compound treatment, extracellular HBsAg level were measured with Chemiluminescence Immuno Assay (CLIA) kit (Autobio, HBsAg Quantitative CLIA). Extracellular HBV DNA was extracted by MagNA Pure 96 system (Roche) and then determined by quantitative PCR with the following primers and probe: HBV-Forward Primer (SEQ ID NO:2): […] (5′ to 3′); HBV-Reverse Primer (SEQ ID NO:3): […](5′ to 3′); HBV-Probe: 5′+tetramethylrhodamine+SEQ ID NO:4+black hole quencher 2-3′, wherein SEQ ID NO:4 is […].
HBsAg IC50 and HBV DNA IC50 values were derived from the dose-response curve using 4 parameter logistic curve fit method.

The subject of experiment [3] is cccDNA level in HepDES19 cells. Kind of experiment: cccDNA Southern Blot assay. It is filed as cell-based, HBV. The conditions noted are these: 5 days' compound treatment, Hirt DNA, serial dilutions. The procedure: HepDES19 cells were seeded at 4×10^6 cells per T150 in the culture medium (Dulbecco's Modified Eagle Medium: Nutrient Mixture F-12 (DMEM:F12, Gibco Cat. 11320-82), 10% Fetal Bovine Serum (FBS, Clontech Cat. 631101), 0.1 mM Non-Essential Amino Acids Solution (NEAA, Gibco Cat. 11140-050), […] Penicillin-Streptomycin (PS, Invitrogen Cat. 15140-163), 500 μg/mL Geneticin (G418, Invitrogen Cat. 10131-027) in the absence of Tet for 8 days. These cells were seeded at the density of 1×10^6 cells per well in 6-well plate. At 24 hrs after seeding, serial dilutions of compounds made with DMSO (Sigma, Cat. D2650) were further diluted with the same culture medium as described above before they were added to the cells to reach desired final compound concentrations and 1% DMSO concentration. After 5 days' compound treatment, the cells growing in one well from 6-well plate were re-suspended with 500 μL re-suspension buffer (50 mM tris[hydroxymethyl]aminomethane pH 7.5), 10 mM ethylenediaminetetraacetic acid (EDTA), 50 μg/mL RNase A (Qiagen, Cat. 158922). 500 μL of 1.2% sodium dodecyl sulfate (SDS) was then added into the re-suspended cells to lyse the cells. After 15 minutes' incubation, 700 μL precipitation buffer (3M cesium chloride, 1M potassium acetate, 0.67M acetic acid) was added and the lysate was incubated at 4° C. for 2 h. The lysate was centrifuged at 15000 revolutions per minute (RPM) at 4° C. for 15 minutes. The supernatant was collected and loaded onto Qiagen miniprep columns (QIAprep spin Mini prep kit, Cat. No. 27016). After centrifugation for 1 minute at 15000 RPM, the column was washed once with 750 µL wash buffer PE from QIAprep spin Mini prep kit. 80 μL of double distilled water was loaded to the columns to elute Hirt DNA.
Hirt DNA of each sample was loaded into 1.2% lx tris-acetate electrophoresis (TAE) agarose gel and separated at 90 voltages for 3 hours. The gel was then treated in 50 mM NaAc—HAc, pH4.2 for 30 min at room temperature (RT), and then denatured by soaking in denaturation buffer (0.5 M sodium hydroxide, 1.5 M sodium chloride) at RT for 30-45 min. The gel was then treated with neutralization buffer (1M tris[hydroxymethyl]aminomethane pH7.4 and 1.5M NaCl) at RT for 30 to 45 min.
The gel was transferred onto a pre-wet Nylon membrane (GE life science, Hybond N+) by capillary transfer method overnight, followed by UV crosslinking. The membrane was transferred into a hybridization tube, then rinsed with double distilled water at 60° C. for 5 mins. 10 mL of hybridization buffer (Lab kits, China) was added, the resulting sample was rotated in hybridization oven at 60° C. for 1 hour. Digoxigenin (DIG)-labelled HBV probe (SEQ ID NO: 1) was denatured at 95° C. for 10 minutes, and then 7 μL of denatured probe was added to the hybridization tube, which was rotated in hybridization oven at 60° C. overnight.
On the second day, the membrane was washed according to the procedure of DIG wash and block buffer set kit (Roche, Cat. 11 585 762 001), and then incubated with 50 mL antibody solution (Antibody anti-Digoxigenin-AP Fab fragment (Roche Cat. 11093274910) diluted in fresh 1× blocking buffer at 1:10,000) for 1 hour. The membrane was washed with 50 mL washing buffer (1× Maleic buffer with 0.3% Tween-20) for 15 minutes twice, and equilibrated with 20 mL detection buffer (0.1M tris[hydroxymethyl]aminomethane pH9.5, 0.1M sodium chloride) for 5 minutes. CDP-Star substrate (Roche, Cat. 12041677001) was added to the membrane for 5 minutes, and then the membrane was scanned by Bio-Rad Visualize Image System (Biorad, ChemiDoc-MP, Serial No. 731BR00916).

As usually defined, the IC50 is the midpoint of a concentration-inhibition curve.

The structures appear in SMILES notation. Bounds are passed on as bounds.

Turning to `O=C(O)C1CCN(c2ccc3c(=O)c4cccc(Cl)c4sc3c2)C1` (stereo not drawn) [Example 6, 1-(5-chloro-9-oxo-thioxanthen-3-yl)pyrrolidine-3-carboxylic acid], the IC50 was 4.94 µM in experiment [1] and 5.06 µM in experiment [2].
Turning to `O=C(O)C1CCN(c2ccc3c(=O)c4cccc(Br)c4oc3c2)C1` (stereo not drawn) [Example 7, 1-(5-bromo-9-oxo-xanthen-3-yl)pyrrolidine-3-carboxylic acid], the “cccDNA level in HepDES19 cells (Southern Blot)” value in experiment [3] is “dose-dependently reduced cccDNA level”. The IC50 in experiment [1] was 3.56 µM.
With `Cc1cc2c(=O)c3cccc(Cl)c3oc2cc1N1CCC(C(=O)O)C1` (stereo not drawn) [Example 39, 1-(5-chloro-2-methyl-9-oxo-xanthen-3-yl)pyrrolidine-3-carboxylic Acid], the figures for the IC50 in experiment [1] and in experiment [2] were 1.08 µM and 3.18 µM, respectively.
For the compound `Cc1ccc(Cl)c2oc3cc(N4CCC(C(=O)O)C4)ccc3c(=O)c12` (stereo not drawn) [Example 40, 1-(5-chloro-8-methyl-9-oxo-xanthen-3-yl)pyrrolidine-3-carboxylic Acid], the IC50 in experiment [1] stood at 1.31 µM; in experiment [2], 1.69 µM.
For `O=C(O)C1CCN(c2cc3oc4c(Cl)cccc4c(=O)c3cn2)C1` (stereo not drawn) [Example 41, 1-(6-chloro-10-oxo-chromeno[3,2-c]pyridin-3-yl)pyrrolidine-3-carboxylic Acid] the same measures were 4.04 µM and 8.08 µM.
For `O=C(O)C1CCN(c2cc3oc4c(Cl)cccc4c(=O)c3cc2F)C1` (stereo not drawn) [Example 42, 1-(5-chloro-2-fluoro-9-oxo-xanthen-3-yl)pyrrolidine-3-carboxylic Acid], in that order: 1.17 µM and 7.74 µM.
Take `O=C(O)C1CCN(c2cc3oc4c(Cl)cccc4c(=O)c3cc2Cl)C1` (stereo not drawn) [Example 43, 1-(2,5-dichloro-9-oxo-xanthen-3-yl)pyrrolidine-3-carboxylic Acid]: the values for the IC50 in experiment [1] and in experiment [2] were 1.11 µM and 8.22 µM, respectively.
For `N#Cc1ccc(Cl)c2oc3cc(N4CCC(C(=O)O)C4)ccc3c(=O)c12` (stereo not drawn) [Example 44, 1-(5-chloro-8-cyano-9-oxo-xanthen-3-yl)pyrrolidine-3-carboxylic Acid] the same measures were 1.1 µM and 12.4 µM.
On to `O=C(O)C1CCN(c2ccc3c(=O)c4c(O)ccc(Cl)c4oc3c2)C1` (stereo not drawn) [Example 53, 1-(5-chloro-8-hydroxy-9-oxo-xanthen-3-yl)pyrrolidine-3-carboxylic Acid], for which the figures for the IC50 in experiment [1] and in experiment [2] were 3.43 µM and 8.12 µM, respectively.
Regarding `O=C(O)C1CCN(c2ccc3c(=O)c4c(F)ccc(Cl)c4oc3c2)C1` (stereo not drawn) [Example 66, 1-(5-chloro-8-fluoro-9-oxo-xanthen-3-yl)pyrrolidine-3-carboxylic Acid], the IC50 was determined as 1.91 µM in experiment [1] and 8.48 µM in experiment [2].
For `O=C(O)C1CCN(c2ccc3c(=O)c4c(C(F)(F)F)ccc(Cl)c4oc3c2)C1` (stereo not drawn) [Example 67, 1-[5-chloro-9-oxo-8-(trifluoromethyl)xanthen-3-yl]pyrrolidine-3-carboxylic Acid], in that order: 0.39 µM and 1.29 µM.
For `COc1cc(O[C@@H]2O[C@H](CO)[C@@H](O)[C@H](O)[C@H]2O)c2c(=O)c3c(O)ccc(O)c3oc2c1` [Swertianolin, 5,8-dihydroxy-3-methoxy-1-[(2S,3R,4S,5S,6R)-3,4,5-trihydroxy-6-(hydroxymethyl)tetrahydropyran-2-yl]oxy-xanthen-9-one, reference compound] the same measures were more than 100 µM and more than 100 µM.
